Experimental data from US8618152B2, “Inhibitors of serine proteases, particularly HCV NS3-NS4A proteases” (Vertex Pharmaceuticals Incorporated, priority 2003, dated 2013).
*1 amine or outer side, *2 acyl side, *3 side chain or, on linkers, in order; H or OH if unused. Where a SMILES comes first, the peptide text is derived from it. [ ]: non-standard residue; d: D form. The star is where a group is joined. ξ: configuration not given here. Pro(3S-Et) = CC[C@H]1CCN[C@@H]1C(=O)O; Pyrazinecarbonyl = O=C(c1cnccn1)*; X1 = CCCC(N[*:1])C(=O)C(=O)[*:2]; Ile(3ξ) = CCC(C)[C@H](N)C(=O)O; aThr = C[C@H](O)[C@H](N)C(=O)O; Chg = N[C@H](C(=O)O)C1CCCCC1; Tle = CC(C)(C)[C@H](N)C(=O)O

molecular target: HCV NS3-NS4A protease (tNS3 with KK4A) (Hepatitis C virus genotype 1a, UniProt P27958); experiment: HCV Ki assay (HPLC microbore separation of 5AB substrate and products); type: biochemical; conditions: 25 nM tNS3, 25 μM KK4A, 25 μM 5AB substrate, 20 min at 30 C; read-out: Ki
Sequence (P27958 1027-1208): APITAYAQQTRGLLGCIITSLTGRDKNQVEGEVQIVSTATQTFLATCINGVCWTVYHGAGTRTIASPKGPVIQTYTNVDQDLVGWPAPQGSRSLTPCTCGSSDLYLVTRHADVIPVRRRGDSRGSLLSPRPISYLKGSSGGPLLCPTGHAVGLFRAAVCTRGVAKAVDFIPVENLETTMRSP
Procedure: HPLC Microbore Method for Separation of 5AB Substrate and Products
Substrate: NH2-Glu-Asp-Val-Val-(alpha)Abu-Cys-Ser-Met-Ser-Tyr-COOH
A stock solution of 20 mM 5AB (or concentration of your choice) was made in DMSO w/0.2M DTT. This was stored in aliquots at −20 C.
Buffer: 50 mM HEPES, pH 7.8; 20% glycerol; 100 mM NaCl
Total assay volume was 100 μL
The buffer, KK4A, DTT, and tNS3 were combined; distributed 78 μL each into wells of 96 well plate. This was incubated at 30 C for ˜5-10 min.
2.5 μL of appropriate concentration of test compound was dissolved in DMSO (DMSO only for control) and added to each well. This was incubated at room temperature for 15 min.
Initiated reaction by addition of 20 μL of 250 μM 5AB substrate (25 μM concentration is equivalent or slightly lower than the Km for 5AB).
Incubated for 20 min at 30 C.
Terminated reaction by addition of 25 μL of 10% TFA
Transferred 120 μL aliquots to HPLC vials
Separated SMSY product from substrate and KK4A by the following method:
Microbore Separation Method:
Instrumentation: Agilent 1100
Column thermostated chamber G1316A
Diode array detector G1315A
Solvent A=HPLC grade water+0.1% TFA
Solvent B=HPLC grade acetonitrile+0.1% TFA
Stop time: 17 min Post-run time: 10 min.

First: CCCC(NC(=O)[C@@H]1[C@@H](CC)CCN1C(=O)[C@@H](NC(=O)[C@@H](NC(=O)c1cnccn1)C1CCCCC1)C1CCCCC1)C(=O)C(=O)N[C@@H](C)c1ccccc1 (stereo partly drawn) [Compound 50]
Second: CCCC(NC(=O)[C@@H]1[C@@H](CC)CCN1C(=O)[C@@H](NC(=O)[C@@H](NC(=O)c1cnccn1)C1CCCCC1)C1CCCCC1)C(=O)C(=O)N[C@@H](Cc1ccccc1)C(=O)O (stereo partly drawn) [Compound 42] (Pyrazinecarbonyl-[Chg][Chg][Pro(3S-Et)][X1]F-OH)
The Ki of the first is higher: 100 to 500 nM for the first, less than 100 nM for the second.

`CCCC(NC(=O)[C@@H]1[C@@H](C(=O)OC)CCN1C(=O)[C@@H](NC(=O)[C@@H](NC(=O)c1cnccn1)C(C)C)C(C)C)C(=O)C(=O)N[C@@H](Cc1ccccc1)C(=O)O` (stereo partly drawn) [Compound 15] and `CCCC(NC(=O)[C@@H]1[C@@H](C)CCN1C(=O)[C@@H](NC(=O)[C@@H](NC(=O)c1cnccn1)C(C)C)C(C)C)C(=O)C(=O)N[C@@H](Cc1ccccc1)C(=O)O` (stereo partly drawn) [Compound 22] fall in the same range of Ki: 100 to 500 nM for the first, 100 to 500 nM for the second.

`CCCC(NC(=O)[C@@H]1[C@@H](CC)CCN1C(=O)[C@@H](NC(=O)[C@@H](NC(=O)c1cnccn1)C1CCCCC1)C(C)CC)C(=O)C(=O)NC1CC1` (stereo partly drawn) [Compound 25] and `CCCC(NC(=O)[C@@H]1[C@@H](CC)CCN1C(=O)[C@@H](NC(=O)[C@@H](NC(=O)c1ncc[nH]1)C1CCCCC1)C(C)C)C(=O)C(=O)NC1CC1` (stereo partly drawn) [Compound 53] fall in the same range of Ki: 100 to 500 nM for the first, 100 to 500 nM for the second.

`CCCC(NC(=O)[C@@H]1[C@@H](CC)CCN1C(=O)[C@@H](NC(=O)[C@@H](NC(=O)c1cnccn1)C1CCCCC1)C(C)CC)C(=O)C(=O)N[C@@H](C)c1ccccc1` (stereo partly drawn) [Compound 51] and `CCCC(NC(=O)[C@@H]1[C@@H](CC)CCN1C(=O)[C@@H](NC(=O)[C@@H](NC(=O)c1cnccn1)C1CCCCC1)C(C)C)C(=O)C(=O)N[C@@H](C)c1ccccc1` (stereo partly drawn) [Compound 43] fall in the same range of Ki: 100 to 500 nM for the first, 100 to 500 nM for the second.

First: C=C[C@H]1CCN(C(=O)[C@@H](NC(=O)[C@@H](NC(=O)c2cnccn2)C(C)C)C(C)C)[C@@H]1C(=O)NC(CCC)C(=O)C(=O)N[C@@H](Cc1ccccc1)C(=O)O (stereo partly drawn) [Compound 19]
Second: CCCC(NC(=O)[C@@H]1[C@@H](C(C)CC)CCN1C(=O)[C@@H](NC(=O)[C@@H](NC(=O)c1cnccn1)C(C)C)C(C)C)C(=O)C(=O)N[C@@H](Cc1ccccc1)C(=O)O (stereo partly drawn) [Compound 57]
The Ki of the first is higher: 100 to 500 nM for the first, less than 100 nM for the second.

First: CCCC(NC(=O)[C@@H]1[C@@H](CC)CCN1C(=O)[C@@H](NC(=O)[C@@H](NC(=O)c1cnccn1)C(C)C)[C@@H](C)OC)C(=O)C(=O)N[C@@H](Cc1ccccc1)C(=O)O (stereo partly drawn) [Compound 35] (Pyrazinecarbonyl-VT(Me)[Pro(3S-Et)][X1]F-OH)
Second: CCCC(NC(=O)[C@@H]1[C@@H](CC)CCN1C(=O)[C@@H](NC(=O)[C@@H](NC(=O)c1cnccn1)C(C)C)[C@H](C)OC)C(=O)C(=O)N[C@@H](Cc1ccccc1)C(=O)O (stereo partly drawn) [Compound 33] (Pyrazinecarbonyl-V[aThr](Me)[Pro(3S-Et)][X1]F-OH)
The Ki of the first is higher: greater than 500 nM for the first, 100 to 500 nM for the second. The second binds more tightly here.

First: CCCC(NC(=O)[C@@H]1[C@@H](CC)CCN1C(=O)[C@@H](NC(=O)[C@H](CC(C)C)NC(=O)c1cnccn1)C(C)C)C(=O)C(=O)N[C@@H](Cc1ccccc1)C(=O)O (stereo partly drawn) [Compound 28] (Pyrazinecarbonyl-LV[Pro(3S-Et)][X1]F-OH)
Second: CCCC(NC(=O)[C@@H]1[C@@H](CC)CCN1C(=O)[C@@H](NC(=O)[C@@H](NC(=O)c1cnccn1)C(C)C)C(C)CC)C(=O)C(=O)N[C@@H](Cc1ccccc1)C(=O)O (stereo partly drawn) [Compound 30] (Pyrazinecarbonyl-V[Ile(3ξ)][Pro(3S-Et)][X1]F-OH)
The Ki of the first is lower: less than 100 nM for the first, 100 to 500 nM for the second.

For `CCCC(NC(=O)[C@@H]1[C@@H](CC)CCN1C(=O)[C@@H](NC(=O)[C@@H](NC(=O)c1cnccn1)C(C)C)C(C)(C)C)C(=O)C(=O)N[C@@H](Cc1ccccc1)C(=O)O` (stereo partly drawn) [Compound 31] (Pyrazinecarbonyl-V[Tle][Pro(3S-Et)][X1]F-OH), the Ki was less than 100 nM.
